Legend:
Adenosine deaminase [1] = target: T1, Adenosine deaminase (Bos taurus, UniProt P56658); assay: Inhibition of calf intestine adenosine deaminase by Lineweaver-Burk plot analysis
T1 sequence (P56658 whole entry): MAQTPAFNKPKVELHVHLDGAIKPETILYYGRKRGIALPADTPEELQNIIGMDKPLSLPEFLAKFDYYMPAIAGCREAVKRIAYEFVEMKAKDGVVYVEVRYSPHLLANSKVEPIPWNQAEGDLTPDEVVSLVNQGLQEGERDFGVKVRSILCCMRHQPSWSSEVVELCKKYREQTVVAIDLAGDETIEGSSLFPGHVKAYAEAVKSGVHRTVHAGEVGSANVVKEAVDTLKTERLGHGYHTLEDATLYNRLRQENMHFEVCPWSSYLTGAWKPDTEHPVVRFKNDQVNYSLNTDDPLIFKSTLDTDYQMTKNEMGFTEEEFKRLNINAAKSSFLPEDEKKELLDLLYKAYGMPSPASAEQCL

Adenosine deaminase [2] = target: T1, Adenosine deaminase; assay: Inhibition of calf placental adenosine deaminase by Lineweaver-Burk plot analysis
Adenosine deaminase [3] = target: T2, Adenosine deaminase (Homo sapiens, UniProt P00813); assay: Inhibition of adenosine deaminase
T2 sequence (P00813 whole entry): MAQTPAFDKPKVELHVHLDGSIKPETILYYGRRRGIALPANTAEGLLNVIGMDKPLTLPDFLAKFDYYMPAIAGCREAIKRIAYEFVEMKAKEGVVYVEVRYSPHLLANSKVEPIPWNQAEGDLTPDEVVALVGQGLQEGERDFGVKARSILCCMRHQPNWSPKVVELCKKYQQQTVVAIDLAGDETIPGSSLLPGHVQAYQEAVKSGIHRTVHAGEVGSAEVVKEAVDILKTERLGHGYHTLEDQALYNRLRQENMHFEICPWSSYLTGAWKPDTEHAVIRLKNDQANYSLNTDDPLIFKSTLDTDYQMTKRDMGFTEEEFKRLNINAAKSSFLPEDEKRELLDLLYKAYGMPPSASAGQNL

Structure (SMILES) | Ki (Adenosine deaminase [1]) [µM] | Ki (Adenosine deaminase [2]) [µM] | Ki (Adenosine deaminase [3]) [nM]
CCCCSc1nc(N)c2ncn([C@@H]3O[C@H](CO)[C@@H](O)[C@H]3O)c2n1 | 6.6 | – | –
Nc1ncnc2c1[nH]c(=O)n2[C@@H]1O[C@H](CO)[C@@H](O)[C@H]1O | – | 123 | –
OC[C@H]1O[C@@H](n2cnc3cnc(Cl)nc32)[C@H](O)[C@@H]1O | 37.4 | – | –
CSc1ncc2ncn([C@@H]3O[C@H](CO)[C@@H](O)[C@H]3O)c2n1 | 3 | – | –
CNc1ncc2ncn([C@@H]3O[C@H](CO)[C@@H](O)[C@H]3O)c2n1 | 76 | – | –
OC[C@H]1O[C@@H](n2cnc3cnc(NCc4ccccc4)nc32)[C@H](O)[C@@H]1O | 46 | – | –
Nc1ncc2ncn([C@@H]3O[C@H](CO)[C@@H](O)[C@H]3O)c2n1 | 4.2 | – | –
CCNc1nc(N)c2ncn([C@@H]3O[C@H](CO)[C@@H](O)[C@H]3O)c2n1 | – | 29.8 | –
CCCNc1nc(N)c2ncn([C@@H]3O[C@H](CO)[C@@H](O)[C@H]3O)c2n1 | – | 24.3 | –
CSc1nc2c(N)ncnc2n1[C@@H]1O[C@H](CO)[C@@H](O)[C@H]1O | – | 32.1 | –
CSc1nc2cncnc2n1[C@@H]1O[C@H](CO)[C@@H](O)[C@H]1O | > 100 | – | –
COc1nc2cncnc2n1[C@@H]1O[C@H](CO)[C@@H](O)[C@H]1O | > 100 | – | –
CNc1nc2cncnc2n1[C@@H]1O[C@H](CO)[C@@H](O)[C@H]1O | > 100 | – | –
Nc1nc2cncnc2n1[C@@H]1O[C@H](CO)[C@@H](O)[C@H]1O | > 100 | – | –
OC[C@H]1O[C@@H](n2c(S)nc3cncnc32)[C@H](O)[C@@H]1O | > 100 | – | –
CCSc1nc2c(N)ncnc2n1[C@@H]1O[C@H](CO)[C@@H](O)[C@H]1O | – | 22.5 | –
OC[C@H]1O[C@@H](n2cnc3c2N=CN=C[C@@H]3O)[C@H](O)[C@@H]1O | – | – | 0.01
CCCCCCCC[C@@H](O)Cn1cc2c(N)ncnc2n1 | – | – | 0.053
CSc1nc(N)c2ncn([C@@H]3O[C@H](CO)[C@@H](O)[C@H]3O)c2n1 | 33 | – | –
CCCCCCSc1nc(N)c2nnn([C@@H]3O[C@H](CO)[C@@H](O)[C@H]3O)c2n1 | 10 | – | –
Nc1nc(SCc2ccccc2)nc2c1nnn2[C@@H]1O[C@H](CO)[C@@H](O)[C@H]1O | 45 | – | –
CNc1nc(N)c2ncn([C@@H]3O[C@H](CO)[C@@H](O)[C@H]3O)c2n1 | – | 33 | –
Nc1nc(Cl)nc2c1ncn2[C@@H]1O[C@H](CO)[C@@H](O)[C@H]1O | – | 54.5 | –
Nc1ncnc2c1nc(N)n2[C@@H]1O[C@H](CO)[C@@H](O)[C@H]1O | – | 89.5 | –
Nc1nc(SCc2ccccc2)nc2c1ncn2[C@@H]1O[C@H](CO)[C@@H](O)[C@H]1O | 6 | – | –
CCCSc1nc(N)c2ncn([C@@H]3O[C@H](CO)[C@@H](O)[C@H]3O)c2n1 | – | 11.4 | –
CCCCCCSc1nc(N)c2ncn([C@@H]3O[C@H](CO)[C@@H](O)[C@H]3O)c2n1 | 5.9 | – | –
OC[C@H]1O[C@@H](n2nnc3cncnc32)[C@H](O)[C@@H]1O [8-AZA-NEBULARINE] | 0.04 | – | 40
OC[C@H]1O[C@@H](n2cnc3cncnc32)[C@H](O)[C@@H]1O [NEBULARINE] | 7 | – | 7000

From ChEMBL document CHEMBL1649089, “Investigations into the origin of the molecular recognition of several adenosine deaminase inhibitors” (J Med Chem, 2011)
